Publication PMC12371487, “Phenylalkyl Acetophenones and Anacardic Acids from Knema oblongifolia with Synthetic Analogues as Anti-infectives and Antibacterial Agents” (ACS Bio & Med Chem Au, 2025)
In brackets after ≈: the same amount, converted by molar mass. Read-outs that look alike come from different tables or passages of the source.

Assays:
[1] = system: Staphylococcus aureus (Sa) Newman strain; assay: MIC determination in Mueller-Hinton broth (CLSI) on Sa; assay type: cell-based; conditions: Mueller-Hinton broth, CLSI; for MIC: Staphylococcus aureus, NEWMAN, read-out: MIC on Sa
Protocol: MICs were determined in Mueller–Hinton (MH) broth according to CLSI guidelines and were repeated at least on three different occasions.
The Newman strain ofS. aureus and the UCBPP-PA14 strain ofP. aeruginosa were used in this study.

[2] = system: Staphylococcus aureus (Sa) Newman strain; conditions: literature report; reference number not shown in text; cited from earlier work
[3] = system: Mycobacterium marinum (Mm) in broth; assay: Mm growth in broth (antibiotic assay, luminescence); assay type: cell-based; conditions: 72 h; for IC50: read-out: IC50 on Mm in broth
Protocol: Plant extracts, fractions, or isolated compounds were stored at −20 °C and wrapped in aluminum foil if necessary. All manipulations with extracts, fractions, or compounds were performed under a sterile hood. […] Extracts, fractions, or compounds were added to the assay plate in a 1:100 dilution. Assay solutions of extracts, fractions, and compounds were prepared in 96-well plates, stored at −20 °C, and thawed before the experiment at room temperature or warmer with or without shaking/vortexing to obtain a clear assay solution. Extracts were tested at 25 μg/mL and purified compounds in a dose–response curve of 6 concentrations with 100 μM being the top concentration and a 1:3 dilution step between each testing concentration. Since fractions were not weighed individually, the injection mass was used to calculate an average mass per fraction and thus a nominal mass concentration. Fractions were tested at a nominal concentration of 10 μg/mL.
For testing bacteria in broth, the preculture was diluted to a bacterial density of 3.75 × 10^5 bacteria per mL in 7H9 medium. Plating bacteria and compounds or fractions was performed analogously to the infection assay described above. Bacteria growth was monitored with the Agilent BioTek H1 plate reader by recording luminescence at 32 °C.
For both assays, growth curves were obtained by measuring the luminescence and fluorescence as a proxy for bacterial growth and host growth, respectively, for 72 h with time-points taken every hour. The “normalized residual growth” was computed by calculating the area under the curve (AUC, trapezoid method) and normalizing it to the vehicle control (0.3% DMSO, set at 1) and a baseline curve (set at 0). The baseline curve was calculated by taking the median of the first measurement of all wells in a plate and extrapolating it over the complete time course. The threshold for hit detection was arbitrarily fixed at a cutoff of normalized residual growth ≤0.5.
This procedure was also applied to screening extracts with slight modifications. The day before the experiment we preplated 10 μL of HL5-C using a dispenser (Thermo Multidrop), subsequently we preplated 2.2 μL of dissolved extracts from 96-well plates into quadrants 1, 2, and 3 of 384-well plates, whereas quadrant 4 was used for positive and vehicle controls. Preplating of extracts was performed using a liquid handler (Agilent Bravo). In total, 24 extract plates were distributed in triplicate into […] 384-well plates, amounting to 24 assay plates. The prepared plates were sealed and stored at 4 °C overnight. On the day of the experiment, nine 10 cm Petri dishes were infected (as described before) and grouped into three pools. The cell suspension was adjusted to 10^6 cells/mL, and 10 μL was plated into the 24 assay plates, resulting in 10^4 cells per well, as used for conventional infection experiments. Plates were sealed and placed in the plate stacker that supplied the plate reader. The same procedure was used to screen the same extracts on Mm in a broth. For both assays, the first time points and a time point after 72 h were recorded. Subsequently, we normalized the end point, first with the median of the full assay plate at the first time point and second with the end point of the vehicle controls in the respective assay plate.
For IC50 estimation, we used a rudimentary approach of interpolating the sample concentration between the two normalized residual growth values, which were closest to a value of 0.5.

[4] = system: Dictyostelium discoideum (Dd) in infection; assay: Dd-Mm infection assay: host amoeba growth (fluorescence); assay type: cell-based; conditions: infected Dd, fluorescence AUC over 72 h at 25 °C, 6-concentration curve, top 100 μM, 1:3 steps, IC50 interpolated
Protocol: (§1) Plant extracts, fractions, or isolated compounds were stored at −20 °C and wrapped in aluminum foil if necessary. All manipulations with extracts, fractions, or compounds were performed under a sterile hood. Extracts, fractions, and compounds were resuspended throughout in DMSO to best solubilize extracts with diverse constituents. Extracts, fractions, or compounds were added to the assay plate in a 1:100 dilution. Assay solutions of extracts, fractions, and compounds were prepared in 96-well plates, stored at −20 °C, and thawed before the experiment at room temperature or warmer with or without shaking/vortexing to obtain a clear assay solution. Extracts were tested at 25 μg/mL and purified compounds in a dose–response curve of 6 concentrations with 100 μM being the top concentration and a 1:3 dilution step between each testing concentration. Since fractions were not weighed individually, the injection mass was used to calculate an average mass per fraction and thus a nominal mass concentration. Fractions were tested at a nominal concentration of 10 μg/mL.
(§2) As described in Nitschke et al. and Mottet et al., Dd Ax2(ka) expressing mCherry from the act5 chromosomal locus was infected with Mm M strain expressing the lux operon (luxCDABE) , by spinoculation.
(§3) Briefly, the day before the experiment, Mm was cultivated in 7H9 broth (Becton Dickinson, Difco Middlebrook 7H9) supplemented with 10% OADC (Becton Dickinson) and 0.05% tyloxapol (Sigma-Aldrich) and 50 μg/mL kanamycin at 32 °C overnight with continuous shaking. Additionally, the day before the experiment, 10^7 amoebae were plated in HL5-C in a 10 cm Petri dish (Falcon). On the day of the experiment, a volume of the Mm culture corresponding to a multiplicity of infection of 25 with respect to the number of amoebae in the Petri dish was added to the semiconfluent amoebae monolayer. Subsequently, the Petri dishes were centrifuged twice at 500g, as described in Mottet et al. To remove extracellular bacteria, dishes were rinsed with fresh HL5-C, and the infected cell population was resuspended in HL5-C with 5 U/mL penicillin and 5 μg/mL streptomycin (Gibco) to inhibit the extracellular growth of bacteria during the course of the experiment.
(§4) For testing fractions and purified compounds, 20 μL of infected cell suspension was plated into each well of a 384-well plate (Interchim FP-BA8240) to an effective cell number of 1 × 10^4 cells per well. Fractions or compounds including a vehicle control (0.3% DMSO final concentration) and a positive control (rifabutin, 10 μM final concentration) were added using an electronic multipipette (Sartorius). Subsequently, the well plates were sealed with a gas impermeable membrane (H769.1, Carl Roth), briefly centrifuged, and intracellular bacterial growth was monitored using an Agilent BioTek H1 plate reader and an Agilent BioTek BioStack plate stacker by recording luminescence over 72 h at 25 °C with readings taken every hour. Fluorescence was also recorded to monitor amoeba growth.
(§5) For both assays, growth curves were obtained by measuring the luminescence and fluorescence as a proxy for bacterial growth and host growth, respectively, for 72 h with time-points taken every hour. The “normalized residual growth” was computed by calculating the area under the curve (AUC, trapezoid method) and normalizing it to the vehicle control (0.3% DMSO, set at 1) and a baseline curve (set at 0). The baseline curve was calculated by taking the median of the first measurement of all wells in a plate and extrapolating it over the complete time course. The threshold for hit detection was arbitrarily fixed at a cutoff of normalized residual growth ≤0.5. Normalized values were averaged over technical and biological replicates (all experiments on isolated compounds have at least n = 3 and N = 3, whereas the primary extract screening and microfractions testing had values of n = 1 and N = 3). […]

[5] = system: Mycobacterium marinum (Mm) in infection of Dictyostelium discoideum; assay: Dd-Mm infection assay: intracellular Mm growth (luminescence); assay type: cell-based; conditions: Mm inside Dd, luminescence AUC over 72 h at 25 °C; 6-concentration curve, top 100 μM, 1:3 steps; IC50 interpolated
Protocol: as §1, §2, §3, §4, §5

[6] = Mm in 7H9 broth, luminescence at 32 °C, IC50 interpolated

Molecule	MIC on Sa [1]	MIC on Sa ([1]; listed as Anacardic acid) [μg·mL^–1]	active dose against Sa (already reported) [2] [μg mL^–1]	IC50 on Mm in broth [3, 6]	IC50 on Dd in infection [4]	IC50 [5] [µM]	IC50 ([4]; Dictyostelium discoideum) [µM]	MIC [1] [µg/mL]	IC50 ([3]; Mycobacterium marinum) [µM]	IC50 [3, 6] [µM]	IC50 [4] [µM]
CCCCCCCCCCCCCCCc1cccc(O)c1C(=O)O [anacardic acid]	16 mg·L–1	16	25	not active	not active	22.2	–	–	–	–	–
CC(=O)c1ccc(O)cc1O [Compound 13, 2,4-Dihydroxyacetophenone]	not active	–	–	not active	not active	66.7	–	–	–	–	–
CC(=O)c1cc(Br)c(O)c(Br)c1O [Compound 20, 3,5-Dibromo-2,4-dihydroxyacetophenone]	not active	–	–	not active	–	66.7	66.7	–	–	–	–
CC(=O)c1cc(Cl)c(O)c(Cl)c1O [Compound 17, 3,5-Dichloro-2,4-dihydroxyacetophenone]	not active	–	–	not active	–	66.7	66.7	–	–	–	–
CC(=O)c1c(O)cc(O)cc1CCCCCCc1ccccc1 [Compound 4, Knemolone C]	4 μg·mL^–1	–	–	not active	–	22.2	22.2	4 (≈ 12.8 µM)	–	–	–
O=C(O)c1c(O)cccc1CCCCCCc1ccc2c(c1)OCO2 [Compound 6, Knemolic acid B]	–	–	–	Not active	–	7.41	7.41	8 (≈ 23.4 µM)	–	–	–
CCCCCCCCCc1cccc(O)c1C(=O)O [Compound 8, Khookerianic acid A]	–	–	–	not active	–	2.47	2.47	8 (≈ 30.3 µM)	–	–	–
O=C(O)c1c(O)cccc1CCCCCCCCc1ccccc1 [Compound 10, Khookerianic acid C/Kneglobularic acid A]	–	–	–	Not active	–	2.47	2.47	8 (≈ 24.5 µM)	–	–	–
CC(=O)c1c(O)cc(O)c(Cl)c1CCCCCCc1ccccc1 [Compound 28, 1-(3-Chloro-4,6-dihydroxy-2-(6-phenylhexyl)phenyl)ethan-1-one]	–	–	–	–	–	2.47	0.82	4 (≈ 11.5 µM)	22.2	–	–
3-Chloro-2,4-dihydroxychalcone [Compound 21]	32–64 mg·L–1	–	–	–	–	1.76	–	–	–	47.6	0.59
O=C(O)c1c(O)cccc1CCCCCCc1ccccc1 [Compound 7, Knemolic acid C]	–	–	–	not active	–	7.41	7.41	8 (≈ 26.8 µM)	–	–	–
O=C(O)c1c(O)cccc1CCCCc1ccc2c(c1)OCO2 [Compound 3, Knemolic acid A]	–	–	–	Not active	–	66.7	66.7	8 (≈ 25.5 µM)	–	–	–
CC(=O)c1ccc(O)c(Br)c1O [Compound 18, 3-Bromo-2,4-dihydroxyacetophenone]	not active	–	–	not active	–	66.7	66.7	–	–	–	–
